One assay addresses BACE1 (Homo sapiens, UniProt P56817). Kind of assay: In vitro enzymatic BACE FRET assay. The format is biochemical. As to conditions: beta secretase enzyme 0.2 nM, FRET substrate 50 nM, pH 4.2; read-out: BACE1 FRET assay (IC50 class). A digest of the protocol: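 Enzyme activity was measured as release of quenching from a 50 nM fluorophore/quencher peptide spanning the cleavage site, over 1 h. This followed 1 h pre-incubation of 0.2 nM enzyme with compound dilutions at pH 4.2 (acetate, 10% DMSO, genapol). Tris addition ended the reaction before fluorescence was measured.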

Assay [1] concerns Aβ40 in conditioned medium of cells stably expressing Amyloid Precursor Protein (APP). Kind of assay: In vitro BACE cell-based assay (HEK cell assay), Aβ40 sandwich ELISA. As to conditions: Homo sapiens, HEK293, 24 h, inhibition of Aβ40, 24 h incubation, read-out: HEK cell assay (IC50 class). The method in brief: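 Aβ40 in conditioned medium measured after 24 h compound exposure (10-point series, 100 μM or 10 μM start, 0.1% DMSO) of cells stably expressing APP, seeded 40K/well. Detection: pAb40/6E10-biotin sandwich ELISA at 4°C with time-resolved europium read-out; IC50 derived from percent of control.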

The values below come from US8735384B2, “Amino heteroaryl compounds as beta-secretase modulators and methods of use” (Amgen Inc., priority 2010, dated 2014).

Sequence of BACE1 (P56817 46-501, species assumed): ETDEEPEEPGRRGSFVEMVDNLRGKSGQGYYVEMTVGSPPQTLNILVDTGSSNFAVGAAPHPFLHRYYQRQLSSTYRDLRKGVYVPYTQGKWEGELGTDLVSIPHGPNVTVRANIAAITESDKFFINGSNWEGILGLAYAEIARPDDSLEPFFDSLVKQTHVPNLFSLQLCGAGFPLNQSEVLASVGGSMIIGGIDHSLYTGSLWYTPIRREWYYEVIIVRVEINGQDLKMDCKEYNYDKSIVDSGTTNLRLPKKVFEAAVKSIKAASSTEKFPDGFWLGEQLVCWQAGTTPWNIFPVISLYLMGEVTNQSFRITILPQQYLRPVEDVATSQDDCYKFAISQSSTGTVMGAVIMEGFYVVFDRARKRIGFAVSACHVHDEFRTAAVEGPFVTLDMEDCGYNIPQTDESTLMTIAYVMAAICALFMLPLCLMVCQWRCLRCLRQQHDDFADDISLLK

As a reminder, the IC50 is the concentration that inhibits the measured activity by half. Take `CCCC1CCCCN1C(=O)c1cccc(C)c1-c1ccc2nc(N)c(N3CCOCC3)cc2c1` (stereo not drawn) [Example 79, (2-(2-amino-3-morpholinoquinolin-6-yl)-3-methylphenyl)(2-propylpiperidin-1-yl)methanone]: the IC50 on BACE1 is 100 to 500 nM; in assay [1], 1010 to 5000 nM.
In the same order, the values of `Cc1cccc(C(=O)N2CCC(C)CC2)c1-c1ccc2nc(N)c(N3CCOCC3)cc2c1` [Example 80, (2-(2-amino-3-morpholinoquinolin-6-yl)-3-methylphenyl)(4-methylpiperidin-1-yl)methanone] are under 100 nM and 1010 to 5000 nM.
The like results for `CCC1CCCCN1C(=O)c1cccc(C)c1-c1ccc2nc(N)c(N3CCOCC3)cc2c1` (stereo not drawn) [Example 81, (2-(2-amino-3-morpholinoquinolin-6-yl)-3-methylphenyl)(2-ethylpiperidin-1-yl)methanone] were, in that order, under 100 nM and 1010 to 5000 nM.
The like results for `COC1CCCN(C(=O)c2cccc(C)c2-c2ccc3nc(N)c(N4CCOCC4)cc3c2)C1` (stereo not drawn) [Example 82, (2-(2-amino-3-morpholinoquinolin-6-yl)-3-methylphenyl)(3-methoxypiperidin-1-yl)methanone] were, in that order, 100 to 500 nM and 1010 to 5000 nM.
Consider `COCCC1CCCCN1C(=O)c1cccc(C)c1-c1ccc2nc(N)c(N3CCOCC3)cc2c1` (stereo not drawn) [Example 83, (2-(2-amino-3-morpholinoquinolin-6-yl)-3-methylphenyl)(2-(2-methoxyethyl)piperidin-1-yl)methanone], for which the IC50 at BACE1 is 100 to 500 nM; in assay [1], 1010 to 5000 nM.
The like results for `Cc1cccc(C(=O)N2[C@H](C)CCC[C@@H]2C)c1-c1ccc2nc(N)c(N3CCOCC3)cc2c1` [Example 84, (2-(2-amino-3-morpholinoquinolin-6-yl)-3-methylphenyl)((2S,6R)-2,6-dimethylpiperidin-1-yl)methanone] were, in that order, under 100 nM and 501 to 1000 nM.
The like results for `CCOC1CCCN(C(=O)c2cccc(C)c2-c2ccc3nc(N)c(N4CCOCC4)cc3c2)C1` (stereo not drawn) [Example 85, (2-(2-amino-3-morpholinoquinolin-6-yl)-3-methylphenyl)(3-ethoxypiperidin-1-yl)methanone] were, in that order, 100 to 500 nM and 1010 to 5000 nM.
On to `Cc1cccc(C(=O)N2CCCC(C)(C)C2)c1-c1ccc2nc(N)c(N3CCOCC3)cc2c1` [Example 86, (2-(2-amino-3-morpholinoquinolin-6-yl)-3-methylphenyl)(3,3-dimethylpiperidin-1-yl)methanone], for which the IC50 is under 100 nM at BACE1 and 100 to 500 nM in assay [1].
As to `Cc1cccc(C(=O)N2CCCCC2C)c1-c1ccc2nc(N)c(N3CCOCC3)cc2c1` (stereo not drawn) [Example 87, (2-(2-amino-3-morpholinoquinolin-6-yl)-3-methylphenyl)(2-methylpiperidin-1-yl)methanone], the IC50 on BACE1 is under 100 nM; in assay [1] it was 501 to 1000 nM.
The like results for `Cc1cccc(C(=O)N2CC(C)CC(C)C2)c1-c1ccc2nc(N)c(N3CCOCC3)cc2c1` (stereo not drawn) [Example 88, (2-(2-amino-3-morpholinoquinolin-6-yl)-3-methylphenyl)(3,5-dimethylpiperidin-1-yl)methanone] were, in that order, 100 to 500 nM and 1010 to 5000 nM.
In the same order, the values of `Cc1cccc(C(=O)N2CCSC2)c1-c1ccc2nc(N)c(N3CCOCC3)cc2c1` [Example 89, (2-(2-amino-3-morpholinoquinolin-6-yl)-3-methylphenyl)(thiazolidin-3-yl)methanone] are under 100 nM and 501 to 1000 nM.
In the case of `Cc1cccc(C(=O)N2CC=CC2)c1-c1ccc2nc(N)c(N3CCOCC3)cc2c1` [Example 90, (2-(2-amino-3-morpholinoquinolin-6-yl)-3-methylphenyl)(2,5-dihydro-1H-pyrrol-1-yl)methanone], the IC50 on BACE1 is under 100 nM; in assay [1] it was 501 to 1000 nM.
In the same order, the values of `Cc1cccc(C(=O)N2CCSCC2)c1-c1ccc2nc(N)c(N3CCOCC3)cc2c1` [Example 91, (2-(2-amino-3-morpholinoquinolin-6-yl)-3-methylphenyl)(thiomorpholino)methanone] are under 100 nM and 1010 to 5000 nM.
For `Cc1cccc(C(=O)N(C)C2CCCC2)c1-c1ccc2nc(N)c(N3CCOCC3)cc2c1` [Example 92, 2-(2-amino-3-morpholinoquinolin-6-yl)-N-cyclopentyl-N,3-dimethylbenzamide], the IC50 at BACE1 was under 100 nM; in assay [1], 501 to 1000 nM.
In the same order, the values of `Cc1cccc(C(=O)N2CCC(C(C)(C)C)CC2)c1-c1ccc2nc(N)c(N3CCOCC3)cc2c1` [Example 93, (2-(2-amino-3-morpholinoquinolin-6-yl)-3-methylphenyl)(4-tert-butylpiperidin-1-yl)methanone] are under 100 nM and 501 to 1000 nM.
On to `Cc1cccc(C(=O)N2CCC[C@H]2C(F)(F)F)c1-c1ccc2nc(N)c(N3CCOCC3)cc2c1` [Example 94, (S)-(2-(2-amino-3-morpholinoquinolin-6-yl)-3-methylphenyl)(2-(trifluoromethyl)pyrrolidin-1-yl)methanone], for which the IC50 lay in the range of 100 to 500 nM at BACE1 and 1010 to 5000 nM in assay [1].
The like results for `Cc1cccc(C(=O)N2CCC(F)CC2)c1-c1ccc2nc(N)c(N3CCOCC3)cc2c1` [Example 95, (2-(2-amino-3-morpholinoquinolin-6-yl)-3-methylphenyl)(4-fluoropiperidin-1-yl)methanone] were, in that order, under 100 nM and 1010 to 5000 nM.
`Cc1cccc(C(=O)N2CCC(C(F)(F)F)C2)c1-c1ccc2nc(N)c(N3CCOCC3)cc2c1` (stereo not drawn) [Example 96, (2-(2-amino-3-morpholinoquinolin-6-yl)-3-methylphenyl)(3-(trifluoromethyl)pyrrolidin-1-yl)methanone]: the IC50 at BACE1 was under 100 nM; in assay [1] it was 1010 to 5000 nM.
In the case of `Cc1cccc(C(=O)N2CCCC(F)(F)C2)c1-c1ccc2nc(N)c(N3CCOCC3)cc2c1` [Example 97, (2-(2-amino-3-morpholinoquinolin-6-yl)-3-methylphenyl)(3,3-difluoropiperidin-1-yl)methanone], the IC50 on BACE1 was under 100 nM; in assay [1], 501 to 1000 nM.
The like results for `Cc1cccc(C(=O)N2CCC(F)(F)C2)c1-c1ccc2nc(N)c(N3CCOCC3)cc2c1` [Example 98, (2-(2-amino-3-morpholinoquinolin-6-yl)-3-methylphenyl)(3,3-difluoropyrrolidin-1-yl)methanone] were, in that order, under 100 nM and 100 to 500 nM.
In the case of `Cc1cccc(C(=O)N2CC(F)(F)C2)c1-c1ccc2nc(N)c(N3CCOCC3)cc2c1` [Example 99, (2-(2-amino-3-morpholinoquinolin-6-yl)-3-methylphenyl)(3,3-difluoroazetidin-1-yl)methanone], the IC50 on BACE1 lay within 100 to 500 nM; in assay [1], 501 to 1000 nM.
In the case of `Cc1cccc(C(=O)N(C)CC(F)(F)F)c1-c1ccc2nc(N)c(N3CCOCC3)cc2c1` [Example 100, 2-(2-amino-3-morpholinoquinolin-6-yl)-N,3-dimethyl-N-(2,2,2-trifluoroethyl)benzamide], the IC50 at BACE1 is 100 to 500 nM; in assay [1] it was 1010 to 5000 nM.
As to `Cc1cccc(C(=O)N2CC[C@@H](C)C2)c1-c1ccc2nc(N)c(N3CCOCC3)cc2c1` [Example 101, (R)-(2-(2-amino-3-morpholinoquinolin-6-yl)-3-methylphenyl)(3-methylpyrrolidin-1-yl)methanone], the IC50 is under 100 nM on BACE1 and 501 to 1000 nM in assay [1].
The like results for `CCN(CC)C(=O)c1cccc(C)c1-c1ccc2nc(N)c(N3CCOCC3)cc2c1` [Example 102, 2-(2-amino-3-morpholinoquinolin-6-yl)-N,N-diethyl-3-methylbenzamide] were, in that order, 100 to 500 nM and 1010 to 5000 nM.
In the same order, the values of `Cc1cccc(C(=O)N2CCC2)c1-c1ccc2nc(N)c(N3CCOCC3)cc2c1` [Example 103, (2-(2-amino-3-morpholinoquinolin-6-yl)-3-methylphenyl)(azetidin-1-yl)methanone] are 100 to 500 nM and 501 to 1000 nM.
In the same order, the values of `Cc1cccc(C(=O)N(C)CC(C)C)c1-c1ccc2nc(N)c(N3CCOCC3)cc2c1` [Example 104, 2-(2-amino-3-morpholinoquinolin-6-yl)-N-isobutyl-N,3-dimethylbenzamide] are under 100 nM and 501 to 1000 nM.
As for `CCCN(CC)C(=O)c1cccc(C)c1-c1ccc2nc(N)c(N3CCOCC3)cc2c1` [Example 105, 2-(2-amino-3-morpholinoquinolin-6-yl)-N-ethyl-3-methyl-N-propylbenzamide], the IC50 lay in the range of 501 to 1000 nM at BACE1 and 1010 to 5000 nM in assay [1].
For `CCCN(C(=O)c1cccc(C)c1-c1ccc2nc(N)c(N3CCOCC3)cc2c1)C(C)C` [Example 106, 2-(2-amino-3-morpholinoquinolin-6-yl)-N-isopropyl-3-methyl-N-propylbenzamide], the IC50 at BACE1 was 501 to 1000 nM; in assay [1], over 5000 nM.
Regarding `CCN(C(=O)c1cccc(C)c1-c1ccc2nc(N)c(N3CCOCC3)cc2c1)C1CC1` [Example 107, 2-(2-amino-3-morpholinoquinolin-6-yl)-N-cyclopropyl-N-ethyl-3-methylbenzamide], the IC50 lay within 100 to 500 nM on BACE1 and 1010 to 5000 nM in assay [1].
In the same order, the values of `C#CCN(C)C(=O)c1cccc(C)c1-c1ccc2nc(N)c(N3CCOCC3)cc2c1` [Example 108, 2-(2-amino-3-morpholinoquinolin-6-yl)-N,3-dimethyl-N-(prop-2-ynyl)benzamide] are under 100 nM and 501 to 1000 nM.
